According to paper PMC12608245, “Integrated Molecular and Functional Analysis of Hop Ethanolic Extract in Caco-2 Cells: Insights into Inflammation, Barrier Function, and Transport” (International Journal of Molecular Sciences, 2025):

Assays:
IL-6 [1] = test: IL-6 production in IL-1β-stimulated Caco-2 cells (ELISA); format: cell-based; conditions: IL-1β 10 ng/mL, 24 h
Method: (§1) Caco-2 cells were seeded in 48-well plates and cultured as described above. […] Prior to application, HLE was dissolved in DMSO and sterilely transferred into fresh serum-free medium. To remove high-molecular-weight pyrogens, the extract was subjected to a two-step ultrafiltration using a Microsep™ Advance Centrifugal Device with 30 kDa and 100 kDa cut-offs (Pall Corporation, Port Washington, NY, USA), as described in Kruk et al.. After ultrafiltration, 10% FBS was added to the medium. Following a one-hour pre-incubation, IL-1β was added to each well to achieve a final concentration of 10 ng/mL. After 24 h of incubation, the supernatants were collected, and IL-6 and IL-8 concentrations were determined using the sandwich ELISA method (BD Biosciences Pharmingen).

Caco-2 monolayers [2] = test: Transport and metabolism of HLE constituents through Caco-2 monolayers; format: in vitro ADME; conditions: apical to basolateral, 24 h incubation of HLE with Caco-2, based on the peak area ratio
Method: Caco-2 cells were seeded and cultivated as described for the TEER measurements. After 21 days of cultivation, HLE solutions at concentrations of 12.5–100 µg/mL (prepared as for the cell viability assay) were added to the apical compartment. As a non-treated control, medium containing 0.5% DMSO was used. Supernatants from both the apical and basolateral compartments were collected at 0 h and 24 h for chromatographic analysis.
Analyses were performed using a Vanquish UHPLC system coupled with an Exploris 120 Orbitrap mass spectrometer (Thermo Scientific, Bremen, Germany) equipped with a Kinetex XB-C18 column (150 × 2.1 mm, 1.7 µm). Mobile phases consisted of (A) water and (B) acetonitrile:water (4:1, v/v), both containing 0.1% HCOOH and 5 mM NH4HCOO. […] Electrospray settings: spray voltage 3.5 kV (+)/2 kV (−); sheath/aux/sweep gas 48/11/2 Arb; ion transfer tube 320 °C; vaporizer 280 °C. Data were acquired in full-scan mode (resolution 120,000, polarity switching). MS2 spectra were obtained using stepped NCE 30/50% (resolution 15,000) and ddMS2 settings of four fragmentation scans per full scan, single-charge filter, isotope and dynamic exclusion enabled. Experimental samples were analyzed with and without fragmentation exclusion lists generated from control samples to enhance MS2 coverage. Data processing was performed in Compound Discoverer 3.4 (Thermo Scientific, Austin, TX, USA). Signals corresponding to hop extract constituents were identified based on comparison of donor compartment solution and method blank. Similarity analysis and molecular networking (mzMine 4.6) were based on shared fragments or constant m/z shifts.

Caco-2 monolayers [3] = test: TEER measurement of Caco-2 monolayer; format: cell-based; conditions: for TEER: IL-1β control
Method: Caco-2 cells were cultivated in 6-well plates on a Transwell transparent insert (Greiner Bio-One, Kremsmünster, Austria) with density of 6 × 10^5 cells/insert for 21 days. (37 °C, 5% CO2) Medium that was used contained the earlier mentioned ingredients. Three mL of medium was added to the apical compartment, and 3.5 mL was added to the basolateral compartment. The medium was replaced three times per week. CellZscope systems for 24-well and 6-well formats (nanoAnalytics GmbH, Münster, Germany) were used to analyze the TEER. Solutions were made as described in Section 4.5 with concentrations 12.5–100 µg/mL. As non-treated control, medium containing 0.5% DMSO was used. The medium in the apical compartment was replaced with the HLE solutions or control. After a 24-h incubation period 25 ng/mL of IL-1β was added in basolateral compartment.

IL-6 [4] = test: Caco-2 inflammatory model selection, IL-6 production (ELISA); format: cell-based; conditions: IL-1β 25 and 12.5 ng/mL, 24 h
Method: (§2) Cells were seeded in 48-well plates and cultured as described above. After reaching 100% confluence, they were stimulated with different concentrations and combinations of the following factors: TNF-α (1, 12.5, 25 ng/mL), LPS from E. coli (1, 5, 10 µg/mL), IFN-γ (1, 10, 50 ng/mL), a mixture of IFN-γ and TNF-α (1 + 1, 10 + 10, 50 + 50 ng/mL), and IL-1β (0.01, 0.02, 0.04, 0.08, 1, 12.5, 25 ng/mL). […] After 24 h of incubation, the supernatants were collected, and IL-6 and IL-8 concentrations were determined using the sandwich ELISA method (BD Biosciences Pharmingen, San Diego, CA, USA).

IL-8 [5] = test: IL-8 production in IL-1β-stimulated Caco-2 cells (ELISA); format: cell-based; conditions: IL-1β-stimulated control, IL-1β 10 ng/mL, 24 h
Method: as §1

Caco-2 monolayers [6] = test system: Caco-2 monolayers; set-up: method as in Van de Walle et al. [20]; conditions: IL-1β 25 ng/mL, Caco-2 cell monolayers; ref Van de Walle et al. [20]; cited from earlier work
IL-8 [7] = test: Caco-2 inflammatory model selection, IL-8 production (ELISA); format: cell-based; conditions: 24 h
Method: as §2

Molecule: C[C@@H]1C[C@H]2[C@@H]3CCC4=CC(=O)C=C[C@]4(C)[C@@]3(F)[C@@H](O)C[C@]2(C)[C@@]1(O)C(=O)CO [Dexamethasone, reference compound]
- IL-6 level (IL-6 [1]; dexamethasone 20 µM (positive control), compared with the IL-1β-stimulated control): 3.7 ± 0.3%

Molecule: CC(C)=CCC(=O)[C@@]1(O)C(=O)C(C(=O)C(C)C)=C(O)[C@@]1(O)CC=C(C)C [Peak M10, cohumulinone]
- Transport Efficiency (%) (Caco-2 monolayers [2]): 9%

Molecule: COc1cc(O)c(CC=C(C)C)c(O)c1C(=O)/C=C/c1ccc(O)cc1 [Peak M13, xanthohumol]
- Transport Efficiency (%) (Caco-2 monolayers [2]): 3.5%

Molecule: CC(C)=CCC1=C(O)C(O)(CC=C(C)C)C(=O)C(C(=O)C(C)C)=C1O (stereo not drawn) [Peak M14, cohumulone]
- Transport Efficiency (%) (Caco-2 monolayers [2]): 9.5%

Molecule: CC(C)=CCC1=C(O)C(O)(CC=C(C)C)C(=O)C(C(=O)CCC(C)C)=C1O (stereo not drawn) [Peak M17, prehumulone]
- Transport Efficiency (%) (Caco-2 monolayers [2]): 4.3%

Molecule: IL-1β: pro-inflammatory cytokine used as inflammatory trigger
- TEER (Caco-2 monolayers [3]; 33 h): 83.97 ± 4.20%
- TEER (Caco-2 monolayers [3]; 42 h): 84.25 ± 1.33%
- TEER value decrease (Caco-2 monolayers [3]; after 24 h of exposure to 25 ng/mL IL-1β): 16 ± 1%
- IL-6 secretion versus non-treated control (IL-6 [4]): increase IL-6 at concentrations of 25 and 12.5 ng/mL significantly
- IL-6 level (IL-6 [1]; IL-1β-stimulated control): 103.3 ± 1.7%
- IL-8 level (IL-8 [5]): 100.8 ± 5.5%
- TEER reduction (Caco-2 monolayers [6]): approximately 20 ± 4%
- IL-8 secretion versus non-treated control (IL-8 [7]; IL-1β 25, 12.5, 1, 0.08 and 0.04 ng/mL): significantly increased IL-8 secretion

Molecule: TNF-α
- IL-8 secretion versus non-treated control (IL-8 [7]; TNF-α 25 and 12.5 ng/mL): significantly increased IL-8 secretion

Molecule: hulupone/adhulupone [Peak M4]
- Transport Efficiency (%) (Caco-2 monolayers [2]): 3.7%

Molecule: hydroxy-n-humulinone/hydroxyadhumolinone [Peak M11]
- Transport Efficiency (%) (Caco-2 monolayers [2]): 17.4%

Molecule: n-humulinone/adhumulinone isomer 1 [Peak M7]
- Transport Efficiency (%) (Caco-2 monolayers [2]): 6.9%

Molecule: n-humulinone/adhumulinone isomer 2 [Peak M12]
- Transport Efficiency (%) (Caco-2 monolayers [2]): 11.7%

Molecule: n-humulone/adhumulone isomer 1 [Peak M15]
- Transport Efficiency (%) (Caco-2 monolayers [2]): 8%

Molecule: n-humulone/adhumulone isomer 2 [Peak M16]
- Transport Efficiency (%) (Caco-2 monolayers [2]): 9.6%

Molecule: tetrahydro-iso-α-acid [Peak M6]
- Transport Efficiency (%) (Caco-2 monolayers [2]): 2%
